Measured values as given in PMC5342071, “A first generation inhibitor of human Greatwall kinase, enabled by structural and functional characterisation of a minimal kinase domain construct” (Oncotarget, 2016).

Assays:
Assay type in all cases: biochemical
CDK2 = target: T1, CDK2 (Homo sapiens, UniProt P24941); assay: CDK2 kinase assay, Histone H1 substrate, Kinase-Glo Max; conditions: for IC50: ± S.D.
T1 construct: made in house; host or cells: E. coli
Experimental: PKA, ROCK1 and CDK2 kinase assays
PKA and ROCK1 assays (Promega) were carried out according to the manufacturer’s protocols and CDK2 assays were carried out with Histone H1 as substrate (1 µg per 20 µl reaction) according to our Kinase-Glo Max assay. CDK2 was expressed and purified from E. coli as previously described (10). […]
(§1) Data were normalised against the AllStars negative control siRNA treated cells and values obtained from 3 – 5 biological replicates were reported as the mean ± 1 S.D.

ROCK1 = target: T2, ROCK1 (Homo sapiens, UniProt Q13464); assay: ROCK1 kinase assay (Promega); conditions: for IC50: ± S.D.
T2 construct: purchased Promega
T2 sequence (Q13464 whole entry): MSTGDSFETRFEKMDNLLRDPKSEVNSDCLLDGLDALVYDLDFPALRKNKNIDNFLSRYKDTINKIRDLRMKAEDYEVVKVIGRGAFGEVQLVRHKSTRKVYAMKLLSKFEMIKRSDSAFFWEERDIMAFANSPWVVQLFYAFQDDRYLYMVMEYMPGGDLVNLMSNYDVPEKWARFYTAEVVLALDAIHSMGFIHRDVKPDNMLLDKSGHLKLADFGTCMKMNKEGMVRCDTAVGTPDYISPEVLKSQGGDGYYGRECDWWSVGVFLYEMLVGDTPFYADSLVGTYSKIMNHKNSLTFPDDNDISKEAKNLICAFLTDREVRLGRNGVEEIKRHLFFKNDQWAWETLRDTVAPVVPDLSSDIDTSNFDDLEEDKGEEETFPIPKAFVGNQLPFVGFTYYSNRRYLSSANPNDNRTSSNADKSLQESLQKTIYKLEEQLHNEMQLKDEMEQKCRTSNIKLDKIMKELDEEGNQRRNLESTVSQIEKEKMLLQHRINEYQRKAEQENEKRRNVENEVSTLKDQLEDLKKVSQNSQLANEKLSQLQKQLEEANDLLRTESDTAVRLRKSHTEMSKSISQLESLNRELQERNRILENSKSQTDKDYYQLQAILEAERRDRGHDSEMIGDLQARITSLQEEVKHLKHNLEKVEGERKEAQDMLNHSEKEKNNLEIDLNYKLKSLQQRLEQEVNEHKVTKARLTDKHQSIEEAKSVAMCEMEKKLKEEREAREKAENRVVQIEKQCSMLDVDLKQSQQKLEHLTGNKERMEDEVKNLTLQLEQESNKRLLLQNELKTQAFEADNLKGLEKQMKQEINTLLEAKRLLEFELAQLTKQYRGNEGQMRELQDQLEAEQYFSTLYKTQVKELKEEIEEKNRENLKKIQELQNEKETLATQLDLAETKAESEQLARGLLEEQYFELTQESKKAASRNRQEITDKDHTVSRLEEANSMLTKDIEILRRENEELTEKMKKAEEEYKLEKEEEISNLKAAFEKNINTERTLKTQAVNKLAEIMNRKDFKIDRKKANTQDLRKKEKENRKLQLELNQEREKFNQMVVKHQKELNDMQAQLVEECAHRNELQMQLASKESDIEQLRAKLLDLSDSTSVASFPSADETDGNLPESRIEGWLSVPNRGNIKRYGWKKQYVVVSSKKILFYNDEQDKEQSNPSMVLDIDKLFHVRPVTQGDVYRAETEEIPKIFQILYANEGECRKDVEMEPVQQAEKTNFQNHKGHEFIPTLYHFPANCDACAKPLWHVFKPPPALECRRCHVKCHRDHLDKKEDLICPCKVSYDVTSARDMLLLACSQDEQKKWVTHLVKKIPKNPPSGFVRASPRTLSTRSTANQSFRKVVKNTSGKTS
Experimental: (§2) hGWLFL, 100 µl of lysate was diluted 5-fold with IP buffer and combined with 3 µl anti-Flag M2 magnetic Dynabeads [Sigma-Aldrich] overnight at 4 °C. After sequential washes with IP buffer, 1:1 mix of IP and kinase assay buffers and a final wash in kinase assay buffer, the beads were then used in the kinase assay. The reaction was stopped by adding SDS loading buffer and analysed by western blot: p-ENSA and GWL levels were detected using the anti-phospho(Ser67)-ENSA and anti-MASTL(GWL, Prestige) antibodies. Activity was measured as the p-ENSA/GWL ratio and % kinase activity was normalised to the DMSO control. All kinases assays were repeated thrice per assay condition and each point on the concentration-dependent response curves represents the mean ± 1 S.D.
(§3) PKA, ROCK1 and CDK2 kinase assays […]
as §1

PKA = target: T3, PKA (Homo sapiens, UniProt P17612); assay: PKA kinase assay (Promega); conditions: for IC50: ± S.D.
T3 construct: purchased Promega
Experimental: as §2, §3, §1

hGWL-KinDom = target: T4, hGWL-KinDom (Homo sapiens, UniProt Q96GX5); assay: Inhibitor screen of pooled library with hGWL-KinDom (Kinase-Glo Max); conditions: for inhibition at 10 µM: 10 μM screening concentration, ATP concentration = 45 μM; for Rank in inhibitor screen: rank by potency in the screen
T4 construct: that encoded amino acids (aa) 1-194 + ‘RTFC’ + 740-879 of hGWL; GST (rhinovirus 3C-protease cleavable) (N, cleaved yes); made in house; host or cells: E. coli Rosetta2(DE3)
T4 sequence (Q96GX5 with tags, fused parts or gaps limits assumed): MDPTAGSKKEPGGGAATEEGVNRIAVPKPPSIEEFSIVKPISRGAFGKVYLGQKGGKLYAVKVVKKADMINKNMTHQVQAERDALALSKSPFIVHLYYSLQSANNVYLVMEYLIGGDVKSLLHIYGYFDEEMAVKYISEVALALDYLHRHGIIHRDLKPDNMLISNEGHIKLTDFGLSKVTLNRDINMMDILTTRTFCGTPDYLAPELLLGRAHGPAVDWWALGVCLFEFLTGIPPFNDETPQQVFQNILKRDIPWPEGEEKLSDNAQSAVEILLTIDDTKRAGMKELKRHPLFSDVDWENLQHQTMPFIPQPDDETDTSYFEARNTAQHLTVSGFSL
Experimental: Two small-molecule compound libraries, enriched with pharmacophores known to interact with the ATP-binding site of protein kinases, were screened as a pooled library in a Kinase-GloMax luminescence-kinase assay. page 4: […] Dynabeads [Sigma-Aldrich] overnight at 4 °C. After sequential washes with IP buffer, 1:1 mix of IP and kinase assay buffers and a final wash in kinase assay buffer, the beads were then used in the kinase assay. The reaction was stopped by adding SDS loading buffer and analysed by western blot: p-ENSA and GWL levels were detected using the anti-phospho([…] and […], Prestige) antibodies. Activity was measured as the […] ratio and % kinase activity was normalised to the DMSO control. All kinases assays were repeated thrice per assay condition and each point on the concentration-dependent response curves represents the mean ± 1 S.D. PKA, ROCK1 and CDK2 kinase assays PKA and ROCK1 assays (Promega) were carried out according to the manufacturer's protocols and CDK2 assays were carried out with Histone H1 as substrate (1 µg per 20 µl reaction) according to our Kinase-Glo Max assay. CDK2 was expressed and purified from E. coli as previously described (10). Inhibitor Screens with hGWL-KinDom Two small-molecule compound libraries, enriched with pharmacophores known to interact with the ATP- binding site of protein kinases, were kindly provided by GlaxoSmithKline and Roche. We used this pooled library (582 compounds, 10 µM screening concentrations) in a Kinase-Glo Max luminescence kinase assay (11, 12) as part of a two-point screen against hGWL-KinDom kinase activity, using ATP at fixed concentrations of […] With STU as positive control at a […] 4A,B). […] rate = 5.8%; Supplementary Figure 4A). Molecular Docking - AutoDock AT13148 and GKI-1/2 were docked into the ATP-binding site of the hGWL-KinDom crystal structure (where the disordered C-helix was homology-modelled) using AutoDock 4.2.6. PDB format files for the ligand and kinase domain were pre-processed using AutoDock Tools 1.5.6 as described in Mohamed, et al. (13). (Figure 4 and Supplementary Figure 6A,B). Immunofluorescence and Time-lapse video microscopy 2.5 X 105 HeLa cells were plated onto glass coverslips in a 6-well plate, or 4-well µ-slides [Ibidi GmbH] were seeded with 5 X 104 cells and then transfected with Qiagen AllStars negative control or Hs_MASTL_6 siRNAs (14) using Lipofectamine RNAiMax [ThermoFisher Scientific]. Media was exchanged with fresh media the next day. 48 hours after siRNA treatment, only cells to be used for immunofluorescence (IF) were treated with nocodazole (200 ng/mL) and DMSO or GKI-1 at the indicated concentration. For IF, cells were fixed, stained with primary mouse anti-GWL and rabbit anti-p-ENSA antibodies, secondary Alexa Fluor 647-conjugated anti- rabbit and Alexa Fluor 488-conjugated anti-mouse antibodies, DAPI and mounted onto glass microscope slides using Diamond Antifade Mountant [Molecular Probes, ThermoFisher Scientific]. Quantitation of IF images was performed using the […]-Content Screening Station [Olympus Life Science] which acquired 220, 40x images per cover slip. Data were normalised against the AllStars negative control siRNA treated cells and values obtained from three biological replicates were reported as the mean ± 1 S.D. To assist with selecting mitotic cells, ScanR imaging software was utilised to gate for mitotic cells using the circularity factor and total DAPI parameters. To produce time-lapse videos, after 48 hours and cell treatment with DMSO or compound (cells were treated with GKI-1 for 4-h before image acquisition) cells plated in 4-well µ-slides were imaged every 5 minutes for 8.5 hours on an Olympus IX73 microscope, using a 40 x 0.95NA air objective, and recorded on an Orca-Flash 4.0 CMOS camera [Hamatsu]. The computer program Fiji (http://www.fiji.sc/Fiji) was used to generate videos from image sequence TIF files. Data were normalised against the AllStars negative control siRNA treated cells and […]

Row | inhibitory activity towards CDK2 (CDK2; concentrations up to 100 μM) | IC50 (CDK2) [nM] | selectivity for hGWL^FL over ROCK1 (ROCK1) [fold] | IC50 (ROCK1) [µM] | selectivity for hGWL^FL over PKA (PKA) | IC50 (PKA) [µM] | inhibition at 10 µM (hGWL-KinDom) [%] | Rank in inhibitor screen (hGWL-KinDom) | SMILES
1 | no observable inhibitory activity | > 100000 | 2 | 11.3 ± 3.4 | greater than 8 fold | > 40 | – | – | Clc1ccc(Nc2cccc(-c3cn[nH]c3)c2)cc1 [GKI-1, N-(4-chlorophenyl)-3-(1H-pyrazol-4-yl)aniline]
2 | – | – | – | – | – | – | 39.6 | 3 | CN(C)CC#Cc1cccc(C(=O)c2cnn(-c3ccc(F)cc3)c2N)c1 [GRI-3]
3 | – | 89 ± 3 | – | 21.6 ± 5.3 | – | > 100 | 30.1 | 8 | CCN(CC)Cc1ccc(Nc2nccc(-c3cnn4ncccc34)n2)cc1 [GRI-4]
